Assay [1] deals with T1, baculovirus-expressed ALK (Homo sapiens, UniProt Q9UM73).
T1 construct: host or cells: baculovirus expression system
The assay can be described thus: ALK Kinase Assay (ELISA-type, time-resolved fluorescence). It is filed as biochemical. The following applies: 1 μM ATP (Km level); read-out: ALK Activity (ALK Kinase Inhibition, IC50). The gist of the method:
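Substrate coating: phospholipase C-γ, 10 μg/mL in TBS. Kinase step: 30 ng/ml ALK, 15 min, 37° C. Detection and analysis: Eu-N1 PT66 antibody, with IC50 fitted as a sigmoidal variable-slope dose-response curve.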
(An ELISA detects its analyte on a solid surface through an enzyme-linked reagent.)

The target in assay [2] is T2, c-Met (cytoplasmic domain) (Homo sapiens, UniProt P08581).
T2 construct: 10 ng/mL c-Met (cytoplasmic domain, Invitrogen Corporation #PV3143); purchased Invitrogen Corporation PV3143
T2 sequence (P08581 956-1390 limits assumed): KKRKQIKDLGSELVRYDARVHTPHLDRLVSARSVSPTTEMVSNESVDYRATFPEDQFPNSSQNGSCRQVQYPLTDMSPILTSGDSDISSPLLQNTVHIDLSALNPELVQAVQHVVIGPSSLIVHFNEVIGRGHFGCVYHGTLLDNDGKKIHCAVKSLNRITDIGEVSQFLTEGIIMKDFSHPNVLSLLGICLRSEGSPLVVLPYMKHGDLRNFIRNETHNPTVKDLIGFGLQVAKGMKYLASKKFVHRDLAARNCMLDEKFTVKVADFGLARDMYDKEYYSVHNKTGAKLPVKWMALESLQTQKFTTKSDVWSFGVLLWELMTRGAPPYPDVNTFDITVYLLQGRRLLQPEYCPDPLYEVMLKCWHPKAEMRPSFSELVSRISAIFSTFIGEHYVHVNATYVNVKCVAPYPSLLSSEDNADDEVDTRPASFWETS
Nature of the assay: c-Met Kinase Assay (same methods as for ALK, with modifications). Type of assay: biochemical. The settings on record: 1 μM ATP (Km level); read-out: cMet Activity (c-Met Kinase Inhibition, IC50). The essentials: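 This plate-based kinase format uses immobilized phospholipase C-γ as substrate, phosphorylated by c-Met cytoplasmic domain (10 ng/mL) at 37° C for 15 minutes.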

pIC50: −log10 of the molar value. Bounds are passed on as bounds.

T1 sequence (Q9UM73 19-1620): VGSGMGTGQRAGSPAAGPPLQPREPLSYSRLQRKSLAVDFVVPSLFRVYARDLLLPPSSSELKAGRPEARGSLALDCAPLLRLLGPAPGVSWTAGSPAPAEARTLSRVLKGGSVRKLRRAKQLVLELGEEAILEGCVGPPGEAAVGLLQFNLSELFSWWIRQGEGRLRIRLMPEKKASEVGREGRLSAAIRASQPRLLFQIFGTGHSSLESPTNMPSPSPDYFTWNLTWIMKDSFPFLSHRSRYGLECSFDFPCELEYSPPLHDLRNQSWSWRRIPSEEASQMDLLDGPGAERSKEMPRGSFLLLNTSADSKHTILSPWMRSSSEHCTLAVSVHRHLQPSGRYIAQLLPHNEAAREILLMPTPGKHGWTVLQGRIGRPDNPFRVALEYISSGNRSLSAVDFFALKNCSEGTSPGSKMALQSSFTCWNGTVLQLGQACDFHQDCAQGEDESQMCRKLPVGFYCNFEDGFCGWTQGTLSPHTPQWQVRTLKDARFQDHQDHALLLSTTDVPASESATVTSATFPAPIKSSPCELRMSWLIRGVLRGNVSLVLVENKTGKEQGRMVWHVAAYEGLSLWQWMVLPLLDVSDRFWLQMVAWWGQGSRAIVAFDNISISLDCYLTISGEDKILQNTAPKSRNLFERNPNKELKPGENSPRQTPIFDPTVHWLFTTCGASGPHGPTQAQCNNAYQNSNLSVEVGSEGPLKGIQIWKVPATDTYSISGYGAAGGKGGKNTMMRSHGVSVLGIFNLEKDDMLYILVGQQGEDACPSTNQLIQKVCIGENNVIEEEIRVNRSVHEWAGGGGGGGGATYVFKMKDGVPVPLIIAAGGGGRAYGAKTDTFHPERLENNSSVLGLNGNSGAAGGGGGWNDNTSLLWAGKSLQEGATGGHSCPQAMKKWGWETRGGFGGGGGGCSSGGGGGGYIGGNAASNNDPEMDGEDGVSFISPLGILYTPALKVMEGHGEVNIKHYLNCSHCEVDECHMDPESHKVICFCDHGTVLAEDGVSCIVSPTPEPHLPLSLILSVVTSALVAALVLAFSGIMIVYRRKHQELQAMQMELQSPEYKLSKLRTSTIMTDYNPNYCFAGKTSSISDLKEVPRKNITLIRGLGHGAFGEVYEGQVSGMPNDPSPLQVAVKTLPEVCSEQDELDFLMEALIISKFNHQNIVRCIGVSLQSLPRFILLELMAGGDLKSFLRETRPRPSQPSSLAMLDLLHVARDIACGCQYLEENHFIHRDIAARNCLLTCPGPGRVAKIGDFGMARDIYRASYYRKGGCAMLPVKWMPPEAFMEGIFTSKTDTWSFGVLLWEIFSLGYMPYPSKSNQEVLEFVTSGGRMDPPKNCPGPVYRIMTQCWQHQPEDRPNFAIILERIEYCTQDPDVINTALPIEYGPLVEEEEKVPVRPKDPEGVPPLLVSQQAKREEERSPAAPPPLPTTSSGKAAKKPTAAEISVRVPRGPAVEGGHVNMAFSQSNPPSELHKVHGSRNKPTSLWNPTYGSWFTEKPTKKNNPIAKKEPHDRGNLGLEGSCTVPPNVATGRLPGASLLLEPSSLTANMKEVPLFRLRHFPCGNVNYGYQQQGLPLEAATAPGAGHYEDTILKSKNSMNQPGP

As to `COc1c(Nc2ncc(Cl)c(N[C@H]3[C@@H](C(N)=O)[C@@H]4C=C[C@H]3C4)n2)ccc2c1C(=O)C[C@@H](NC(C)=O)CC2` [Example 632, (1S,2S,3R,4R)-3-[2-((S)-7-Acetylamino-1-methoxy-9-oxo-6,7,8,9-tetrahydro-5H-benzocyclohepten-2-ylamino)-5-chloro-pyrimidin-4-ylamino]-bicyclo[2.2.1]hept-5-ene-2-carboxylic acid amide], the figures for the pIC50 in assay [1] and in assay [2] were 6.00 to 7.00 and under 5.00, respectively.
As for `COc1ccc(Nc2nc(Nc3cc4c(cc3OC)CCN(C(=O)C3COCCO3)CC4)ncc2Cl)c(-n2cccn2)c1` (stereo not shown) [Example 633, {7-[5-Chloro-4-(4-methoxy-2-pyrazol-1-yl-phenylamino)-pyrimidin-2-ylamino]-8-methoxy-1,2,4,5-tetrahydro-benzo[d]azepin-3-yl}-[1,4]dioxan-2-yl-methanone], the pIC50 was over 7.00 in assay [1] and under 5.00 in assay [2].
For the compound `COc1cc2c(cc1Nc1ncc(Cl)c(Nc3ccccc3S(=O)(=O)N(C)C)n1)CCN(C(=O)C1COCCO1)CC2` (stereo not shown) [Example 634, 2-{5-Chloro-2-[3-([1,4]dioxane-2-carbonyl)-8-methoxy-2,3,4,5-tetrahydro-1H-benzo[d]azepin-7-ylamino]-pyrimidin-4-ylamino}-N,N-dimethyl-benzenesulfonamide], the pIC50 in assay [1] was over 7.00; in assay [2], under 5.00.
Taken in the same sequence, the figures for `COc1cc2c(cc1Nc1ncc(Cl)c(N[C@H]3[C@@H](C(N)=O)[C@@H]4C=C[C@H]3C4)n1)CCN(C(=O)C1COCCO1)CC2` (stereo partly drawn) [Example 635, (1S,2S,3R,4R)-3-{5-Chloro-2-[3-([1,4]dioxane-2-carbonyl)-8-methoxy-2,3,4,5-tetrahydro-1H-benzo[d]azepin-7-ylamino]-pyrimidin-4-ylamino}-bicyclo[2.2.1]hept-5-ene-2-carboxylic acid amide] were over 7.00 and under 5.00.
`COc1ccc(Nc2nc(Nc3cc4c(cc3OC)CCN(CC3COCCO3)CC4)ncc2Cl)c(-n2cccn2)c1` (stereo not shown) [Example 636, 5-Chloro-N*2*-(3-[1,4]dioxan-2-ylmethyl-8-methoxy-2,3,4,5-tetrahydro-1H-benzo[d]azepin-7-yl)-N*4*-(4-methoxy-2-pyrazol-1-yl-phenyl)-pyrimidine-2,4-diamine]: the pIC50 in assay [1] is over 7.00; in assay [2], under 5.00.
Taken in the same sequence, the figures for `COc1cc2c(cc1Nc1ncc(Cl)c(Nc3ccccc3S(=O)(=O)N(C)C)n1)CCN(CC1COCCO1)CC2` (stereo not shown) [Example 637, 2-[5-Chloro-2-(3-[1,4]dioxan-2-ylmethyl-8-methoxy-2,3,4,5-tetrahydro-1H-benzo[d]azepin-7-ylamino)-pyrimidin-4-ylamino]-N,N-dimethyl-benzenesulfonamide] were over 7.00 and 5.00 to 6.00.
On to `CN(C)S(=O)(=O)c1ccccc1Nc1nc(Nc2ccc3c(c2)CCN(C(=O)C2COCCO2)CC3)ncc1Cl` (stereo not shown) [Example 638, 2-{5-Chloro-2-[3-([1,4]dioxane-2-carbonyl)-2,3,4,5-tetrahydro-1H-benzo[d]azepin-7-ylamino]-pyrimidin-4-ylamino}-N,N-dimethyl-benzenesulfonamide], for which the pIC50 in assay [1] and in assay [2] was over 7.00 throughout.
For `CNC(=O)c1cccc(F)c1Nc1nc(Nc2ccc3c(c2)CCN(C(=O)C2COCCO2)CC3)ncc1Cl` (stereo not shown) [Example 639, 2-{5-Chloro-2-[3-([1,4]dioxane-2-carbonyl)-2,3,4,5-tetrahydro-1H-benzo[d]azepin-7-ylamino]-pyrimidin-4-ylamino}-3-fluoro-N-methyl-benzamide], the pIC50 in assay [1] and in assay [2] was over 7.00 each time.
Turning to `C#CCNC(=O)c1cccc(F)c1Nc1nc(Nc2ccc3c(c2)CCN(C(=O)C2COCCO2)CC3)ncc1Cl` (stereo not shown) [Example 640, 2-{5-Chloro-2-[3-([1,4]dioxane-2-carbonyl)-2,3,4,5-tetrahydro-1H-benzo[d]azepin-7-ylamino]-pyrimidin-4-ylamino}-3-fluoro-N-prop-2-ynyl-benzamide], the pIC50 was 6.00 to 7.00 in assay [1] and over 7.00 in assay [2].
Taken in the same sequence, the figures for `CN(C)S(=O)(=O)c1ccccc1Nc1nc(Nc2ccc3c(c2)CCN(CC2COCCO2)CC3)ncc1Cl` (stereo not shown) [Example 641, 2-[5-Chloro-2-(3-[1,4]dioxan-2-ylmethyl-2,3,4,5-tetrahydro-1H-benzo[d]azepin-7-ylamino)-pyrimidin-4-ylamino]-N,N-dimethyl-benzenesulfonamide] were over 7.00 and over 7.00.
Taken in the same sequence, the figures for `COc1ccc(Nc2nc(Nc3ccc4c(c3)CCN(CC3COCCO3)CC4)ncc2Cl)c(-n2cccn2)c1` (stereo not shown) [Example 642, 5-Chloro-N*2*-(3-[1,4]dioxan-2-ylmethyl-2,3,4,5-tetrahydro-1H-benzo[d]azepin-7-yl)-N*4*-(4-methoxy-2-pyrazol-1-yl-phenyl)-pyrimidine-2,4-diamine] were over 7.00 and 6.00 to 7.00.
Taken in the same sequence, the figures for `CNC(=O)c1ccccc1Nc1nc(Nc2ccc3c(c2)CCC(NCC(F)(F)F)CC3)ncc1Cl` (stereo not shown) [Example 651, 2-{5-Chloro-2-[7-(2,2,2-trifluoro-ethylamino)-6,7,8,9-tetrahydro-5H-benzocyclohepten-2-ylamino]-pyrimidin-4-ylamino}-N-methyl-benzamide] were over 7.00 and over 7.00.
On to `NC(=O)[C@@H]1CCCC[C@H]1Nc1nc(Nc2ccc3c(c2)CCC(NCC(F)(F)F)CC3)ncc1Cl` (stereo partly shown) [Example 653], for which the pIC50 is over 7.00 in assay [1] and 6.00 to 7.00 in assay [2].
With `NC(=O)[C@@H]1[C@H]2CC[C@H](C2)[C@@H]1Nc1nc(Nc2ccc3c(c2)CCC(NCC(F)(F)F)CC3)ncc1Cl` (stereo partly drawn) [Example 654, (1S,2R,3S,4R)-3-{5-Chloro-2-[7-(2,2,2-trifluoro-ethylamino)-6,7,8,9-tetrahydro-5H-benzocyclohepten-2-ylamino]-pyrimidin-4-ylamino}-bicyclo[2.2.1]heptane-2-carboxylic acid amide], the pIC50 in assay [1] is over 7.00; in assay [2] it was 6.00 to 7.00.
Taken in the same sequence, the figures for `Cn1ccnc1-c1ccccc1Nc1nc(Nc2ccc3c(c2)CCC(NCC(F)(F)F)CC3)ncc1Cl` (stereo not shown) [Example 655, 5-Chloro-N*4*-[2-(1-methyl-1H-imidazol-2-yl)-phenyl]-N*2*-[7-(2,2,2-trifluoro-ethylamino)-6,7,8,9-tetrahydro-5H-benzocyclohepten-2-yl]-pyrimidine-2,4-diamine] were over 7.00 and 6.00 to 7.00.
Taken in the same sequence, the figures for `CS(=O)(=O)N[C@@H]1CCCC[C@H]1Nc1nc(Nc2ccc3c(c2)CCC(NCC(F)(F)F)CC3)ncc1Cl` (stereo partly drawn) [Example 656, N-((1R,2R)-2-{5-Chloro-2-[7-(2,2,2-trifluoro-ethylamino)-6,7,8,9-tetrahydro-5H-benzocyclohepten-2-ylamino]-pyrimidin-4-ylamino}-cyclohexyl)-methanesulfonamide] were over 7.00 and 6.00 to 7.00.
The like results for `Cc1cccnc1-c1ccccc1Nc1nc(Nc2ccc3c(c2)CCC(NCC(F)(F)F)CC3)ncc1Cl` (stereo not shown) [Example 657, 5-Chloro-N*4*-[2-(3-methyl-pyridin-2-yl)-phenyl]-N*2*-[7-(2,2,2-trifluoro-ethylamino)-6,7,8,9-tetrahydro-5H-benzocyclohepten-2-yl]-pyrimidine-2,4-diamine] were, in that order, 6.00 to 7.00 and under 5.00.

As usually defined, the pIC50 is the IC50 on a negative log10 scale, so that one unit is a factor of ten.

The values above are taken from patent publication US8148391B2 (Cephalon, Inc., priority 2006, dated 2012).
